The record followed here is patent US20250236596A1, “HYDROXYLAMINE-BASED EGFR INHIBITORS FOR TREATMENT OF CANCER WITH BRAIN METASTASES” (University of Georgia Research Foundation, Inc., priority 2022, published 2025).

Molecules are shown by their SMILES. pIC50: −log10 of the molar value.

Data set [1] has as its system HCC827-luc intracranial tumor. Briefly: Intracranial PDX model with luciferase-tagged HCC827 cells. The format is in vivo, BALB/c nude mice. Particulars: 10 mg/kg PO b.i.d. On the procedure: Animal experiments were performed at Pharmaron Inc. and animal use was approved by Pharmaron's Institutional Animal Care and Use Committee (IACUC) in Pharmaron (Pharmaron IACUC, Protocol #PK-M-07182022, #PK-R-06012022 and #ON-CELL-XEN-06012022) following the guidance of AAALAC. Six- to eight-week-old male SD rats (approximately 200-300 g) obtained from Si Bei Fu Laboratory Animal Technology Co., six- to eight-week-old male CD1 mice (approximately 20-30 g) obtained from Si Bei Fu Laboratory Animal Technology Co., and six- to eight-week-old female BALB/c nude mice (approximately 20-30 g) obtained from Si Bei Fu Laboratory Animal Technology Co., were used in the pharmacokinetic studies. Six- to eight-week-old female BALB/c nude mice (approximately 18-22 g) obtained from Beijing Anikeeper Biotech Co., Ltd were used in the intracranial PDX study. Animals were housed at 20-25° C. with humidity ranging from 40-70% relative humidity, were exposed to 12 h light and dark cycles, and were supplied with food and water ab libitum.
HCC827 cells stably expressing luciferase (HCC827-luc) were injected intracranially. Briefly, 3×10^5 HCC827-luc tumor cells suspended in 2 μL RPMI1640 medium were injected into the right forebrain of anesthetized mice (anesthetic: intramuscular injection of Zoletl™ 50 (Virbac S.A)). Mice were imaged bi-weekly using IVIS Lumina Ill (Perkin Elmer). Images were acquired 10 min post intraperitoneal (IP) injection with 15 mg/mL (at 5 μL/g body weight) of D-luciferin in anesthetized mice (anesthetic: 1-2% isoflurane inhalation). On day 20 post-cellular inoculation, mice were randomized into 2 treatment groups (n=10 mice per group): 1) 1% methylcellulose as vehicle control and 2) 15 (10 mg/kg) (formulation: 1% methylcellulose), PO, b.i.d. (twice daily) dosing (12 h intervals)×7 days for 21 days. […] Body weights of all mice were measured bi-weekly throughout the study and BW change, expressed in % was calculated using the following formula.
BW change (%)=(BWDay X/BWDay 0)×100
Where, BWDay X is the BW on a given day, and BWDay 0 is BW on Day 0 (initiation of treatment). […]

Another data set concerns the target CYP3A4 (Homo sapiens, UniProt P08684). As to the kind of experiment: Human CYP450 inhibition in human liver microsomes, CYP3A4. The format is in vitro ADME. Particulars: pooled human liver microsomes, probe midazolam (1 μM), 1′-hydroxylation. The method, then:
Assessment of compound 15 was carried out at Pharmaron Inc. for its potential to inhibit cytochrome P450 (CYP) isoforms using human liver microsomes. The activities tested were CYP1A2-mediated phenacetin O-demethylation, CYP2C19-mediated (S)-mephenytoin 4′-hydroxylation, CYP2C9-mediated diclofenac 4′-hydroxylation, CYP2D6-mediated dextromethorphan O-demethylation and CYP3A4-mediated midazolam 1′-hydroxylation. Concentrations of substrates were phenacetin (40 μM), mephenytoin (50 μM), diclofenac (6 μM), dextromethorphan (2 μM) and midazolam (1 μM). Probe substrates phenacetin, mephenytoin and dextromethorphan were incubated at 37° for 20 min. Probe substrates diclofenac and midazolam were incubated at 37° for 5 min. […] The reactions were initiated by adding NADPH (1 mM final concentration) after a 5 min-preincubation and the assay was ran in duplicate (n=2). Samples were analyzed by UPLC-MS/MS.

The subject of data set [2] is A431 cell line (overexpressed EGFR wt). As to the kind of experiment: CellTiter-Glo viability assay, A431. The format is cell-based, human. The method, then:
The A431, HCC827, SK-BR-3, ZR-75-30, AU565 and Caco-2 cell lines were obtained from ATCC. The NCI-H1975 cell line was obtained from SIBS. The NCI-H3255 cell line was obtained from CoBioer. Engineered Ba/F3 cell lines were obtained from Crown Bioscience. MCKII-MDR1 cells were obtained from the Netherlands Cancer Institute. HEK293 cells were obtained from Invitrogen. A431 cells were cultured in DMEM (Life Technologies) with 10% FBS. HCC827, NCI-H1975 and AU565 cells were cultured in RPMI1640 (Invitrogen) with 10% FBS. NCI-H3255 cells were cultured in BEGM (Lonza) with 10% FBS. Ba/F3 EGFR-del E746_A750/C797S and Ba/F3 EGFR-L858R/C797S cells were cultured in RPMI (Invitrogen) with 10% FBS. SK-BR-3 cells were cultured in McCoy's 5a (Invitrogen) with 10% FBS. ZR-75-30 cells were cultured in RPMI1640 (Invitrogen) with 20% FBS. BT474 cells were cultured in DMEM (Gibco) with 10% FBS and 10 μg/mL Insulin. Caco-2 and MCKII-MDR1 culture information is given in the permeability studies section. […]
Viability assays using A431, HCC827, NCI-H1975, NCI-H3255, Ba/F3 EGFR-del E746_A750/C797S, Ba/F3 EGFR-L858R/C797S, AU565, SK-BR-3 and ZR-75-30 cells were performed at Crown BioScience. […] Dose-response curves were generated and used to calculate the IC50 values which were calculated on GraphPad Prism from the non-linear regression equation fitted with a sigmoidal dose response and are presented as the mean±SEM.

The next data set deals with CYP2D6 (Homo sapiens, UniProt P10635). As to the kind of experiment: CYP2D6 time-dependent inhibition IC50-shift. Format: in vitro ADME. Particulars: human liver microsomes and primary human hepatocytes; 30 min pre-incubation. On the procedure:
Incubations in human hepatocytes were carried out without pre-incubation or with a 30 min pre-incubation at 37° C., 5% CO2. The experiment was carried out at 37° C., 5% CO2 for 5 min.

Sequence of CYP2D6 (P10635 whole entry): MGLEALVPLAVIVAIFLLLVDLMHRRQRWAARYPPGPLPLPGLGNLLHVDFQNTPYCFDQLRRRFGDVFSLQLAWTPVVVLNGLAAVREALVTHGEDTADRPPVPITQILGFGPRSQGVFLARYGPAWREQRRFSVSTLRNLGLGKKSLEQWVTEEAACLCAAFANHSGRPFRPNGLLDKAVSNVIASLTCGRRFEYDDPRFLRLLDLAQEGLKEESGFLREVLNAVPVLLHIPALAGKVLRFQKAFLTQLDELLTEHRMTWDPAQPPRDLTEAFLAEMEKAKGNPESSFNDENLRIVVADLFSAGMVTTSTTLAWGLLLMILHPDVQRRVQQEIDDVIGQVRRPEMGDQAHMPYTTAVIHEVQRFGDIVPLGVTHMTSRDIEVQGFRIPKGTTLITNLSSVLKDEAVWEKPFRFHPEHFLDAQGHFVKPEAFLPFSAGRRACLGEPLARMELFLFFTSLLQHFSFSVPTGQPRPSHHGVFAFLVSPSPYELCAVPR
Sequence of CYP3A4 (P08684 whole entry, canonical isoform): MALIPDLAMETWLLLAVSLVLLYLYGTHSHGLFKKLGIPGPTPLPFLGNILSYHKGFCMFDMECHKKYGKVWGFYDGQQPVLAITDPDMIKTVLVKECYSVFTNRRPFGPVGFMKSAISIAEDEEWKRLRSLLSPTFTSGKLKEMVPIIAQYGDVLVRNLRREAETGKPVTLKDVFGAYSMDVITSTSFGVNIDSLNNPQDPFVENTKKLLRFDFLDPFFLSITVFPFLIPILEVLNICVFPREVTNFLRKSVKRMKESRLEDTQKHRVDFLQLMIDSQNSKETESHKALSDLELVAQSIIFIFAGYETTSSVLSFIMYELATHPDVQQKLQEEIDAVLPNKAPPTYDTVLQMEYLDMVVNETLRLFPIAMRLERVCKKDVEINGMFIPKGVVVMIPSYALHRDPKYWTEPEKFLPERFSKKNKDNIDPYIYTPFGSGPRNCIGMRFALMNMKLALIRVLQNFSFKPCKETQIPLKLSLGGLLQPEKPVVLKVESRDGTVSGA

In the case of `COc1cc2ncnc(Nc3cccc(Cl)c3F)c2cc1OCCON1CCN(C)CC1` [Compound 15, N-(3-chloro-2-fluorophenyl)-7-methoxy-6-(2-((4-methylpiperazin-1-yl)oxy)ethoxy)quinazolin-4-amine], the “mean body weight loss” value in data set [1] (21-day treatment window) is reported as ≤ 10%. Further, the adverse clinical events entry in data set [1] (21 days) is listed as “no adverse clinical events”. Moreover, the “intracranial tumor response (bioluminescence) relative to vehicle control” value in data set [1] (21 days, P=0.0059) is “profound tumor regression”. Moreover, at CYP3A4, the IC50 at 5 min is > 30000 nM. In addition, the antiproliferative activity result in data set [2] (A431, 72 h, result in words) was “minimal activity”. Also, the pIC50 in data set [2] (Homo sapiens, A-431, A431, overexpressed EGFR wt, 72 h, read-out: antiproliferative IC50) is 7.08. Moreover, the “CYP2D6 time-dependent inhibition (TDI)” value on CYP2D6 is listed as “not to be time dependent”.
